Read-outs that look alike come from different tables or passages of the source.
Columns and labels:
[1] = test system: adjuvant-induced arthritis in rats; assay: Established Adjuvant-Induced Arthritis in Rats; format: in vivo, Charles River Lewis male rats; conditions: for ED50: Rattus norvegicus, read-out: A. A. ED50%
[2] = test system: phenylquinone-induced writhing in mice; assay: Phenylquinone Writhing Test; format: in vivo, female white mice; conditions: Mus musculus, 0.5 h, oral, at 1/2 hour
Experimental: A standard procedure for detecting and comparing the analgesic activity of compounds in this series for which there is good correlation with human efficacy is the standard phenylquinone writhing test modified from Siegmund, et al., Proc. Soc. Exp. Biol. Med. 95, 729 (1957). A test compound suspended in 1% methylcellulose was given orally to fasted (17-21 hours) female white mice, 5-20 animals per double blind test. Aqueous (0.01% phenyl-p-benzoquinone) phenylquinone was injected intraperitoneally at 24 minutes later using 0.20 ml per mouse. […] The effective analgesic dose for 50% of the mice (ED50) was calculated by the moving average method of Thompson, W. R., Bact. Rev. 11, 115-145 (1947); also time of peak action was determined for many of the compounds.

[3] = oral, 7 daily doses, established adjuvant arthritis rats, determined as % paw volume reduction from control
[4] = oral, 7 daily doses, established adjuvant arthritis rats

CCCCC1C(=O)N(c2ccccc2)N(c2ccccc2)C1=O [Phenylbutazone, reference compound]
ED50 [1, 3]: 10 mg/kg

COc1ccc(-c2nc(SC(F)(F)C(F)F)[nH]c2-c2cccs2)cc1 [Example 8, 4-(4-Methoxyphenyl)-2-(1,1,2,2-tetrafluoroethylthio)-5-(2-thienyl)-1H-imidazole]
ED50 [1, 3]: 30 mg/kg | ED50 [2]: 45 mg/kg

O=S(=O)(c1nc(-c2cccs2)c(-c2cccs2)[nH]1)C(F)(F)C(F)F [Example 5, 2-(1,1,2,2-Tetrafluoroethylsulfonyl)-4,5-bis-(2-thienyl)-1H-imidazole]
ED50 [1, 3]: 2.2 mg/kg | ED50 [2]: < 130 mg/kg

FC(F)C(F)(F)Sc1nc(-c2ccco2)c(-c2ccco2)[nH]1 [Example 10, 4,5-bis-(2-Furyl)-2-(1,1,2,2-tetrafluoroethylthio)-1H-imidazole]
% paw volume reduction from control at 50 mg/kg [1, 4]: 34%

COc1ccc2c(c1)c(CC(=O)O)c(C)n2C(=O)c1ccc(Cl)cc1 [Indomethacin, reference compound]
ED50 ([1]; po): 0.3 mg/kg

FC(F)C(F)(F)Sc1nc(-c2ccccc2)c(-c2cccnc2)[nH]1 [Example 11, 4-Phenyl-5-(3-pyridyl)-2-(1,1,2,2-tetrafluoroethylthio)-1H-imidazole]
ED50 [1, 3]: < 25 mg/kg

Fc1ccc(-c2nc(SC(F)(F)C(F)F)[nH]c2-c2cccs2)cc1 [Example 2, 4-(4-Fluorophenyl)-2-(1,1,2,2-tetrafluoroethylthio)-5-(2-thienyl)-1H-imidazole]
ED50 [1, 3]: 1.3 mg/kg

FC(F)C(F)(F)Sc1nc(-c2ccc(Cl)c(Cl)c2)c(-c2cccs2)[nH]1 [Example 6, 4-(3,4-Dichlorophenyl)-2-(1,1,2,2-tetrafluoroethylthio)-5-(2-thienyl)-1H-imidazole]
ED50 [1, 3]: 50 mg/kg

CC(C)Cc1ccc(C(C)C(=O)O)cc1 (stereo not shown) [Ibuprofen, reference compound]
ED50 [1, 3]: 100 mg/kg

FC(F)C(F)(F)Sc1nc(-c2ccc(Cl)cc2)c(-c2cccs2)[nH]1 [Example 4, 4-(4-Chlorophenyl)-2-(1,1,2,2-tetrafluoroethylthio)-5-(2-thienyl)-1H-imidazole]
ED50 [1, 3]: 12 mg/kg

COc1ccc(-c2nc(S(=O)(=O)C(F)(F)C(F)F)[nH]c2-c2cccs2)cc1 [Example 9, 4-(4-Methoxyphenyl)-2-(1,1,2,2-tetrafluoroethylsulfonyl)-5-(2-thienyl)-1H-imidazole]
ED50 [1, 3]: 5 mg/kg | ED50 [2]: 1.67 mg/kg

FC(F)C(F)(F)Sc1nc(-c2cccs2)c(-c2cccs2)[nH]1 [Example 1, 2-[(1,1,2,2-Tetrafluoroethyl)thio]-4,5-bis-(2-thienyl)-1H-imidazole]
% paw volume reduction from control at 50 mg/kg [1, 4]: 32% | ED50 [2]: 4.6 mg/kg

CC(=O)Oc1ccccc1C(=O)O [Aspirin, reference compound]
ED50 ([1]; po): 305 mg/kg

O=S(=O)(c1nc(-c2ccc(F)cc2)c(-c2cccs2)[nH]1)C(F)(F)C(F)F [Example 3, 4-(4-Fluorophenyl)-2-(1,1,2,2-tetrafluoroethylsulfonyl)-5-(2-thienyl)-1H-imidazole]
ED50 [1, 3]: 0.1 mg/kg | ED50 [2]: 2.1 mg/kg

Reference: patent US4159338A, “Antiinflammatory-4,5-dicyclic-2-(substituted thio)-imidazoles and their corresponding sulfoxides and sulfones” (E. I. Du Pont de Nemours and Company, priority 1978, dated 1979)
